Results from patent publication US20260285816A1, “Piperazinyl-Modified Quinazolinyl-Aryl Urea Derivative, And Preparation Method And Use Thereof” (Guangxi Normal University, priority 2025, published 2026).
Where a name gives a salt, the structure may show the parent alone. Read-outs that look alike come from different tables or passages of the source.

Key:
Assay type in all cases: cell-based, human
[1] = system: MCF-7 cells; assay: CCK-8 anti-proliferative assay, MCF-7; conditions: Table 16, comparative compounds 8-1 to 8-23, co-incubated 48 h, read-out: Anti-proliferative activity (IC50 ± standard deviation) MCF-7
Description: (§1) The obtained quinazolinyl-aryl urea derivatives were screened for compounds with optimal activity using the following method.
(§2) Experimental Procedure for Anti-Proliferative Activity Evaluation: The CCK-8 assay was employed. Cells in logarithmic growth phase were harvested, adjusted to appropriate density, and uniformly seeded into 96-well plates using a multichannel pipette (180 μL cell suspension containing complete medium per well, 5,000 cells/well). Blank control wells (containing basal medium, CCK-8 solution, and DMSO only) were set. Cells were incubated at 37° C. under 5% CO2. After 70% confluency was reached, test compounds (target compounds/positive controls) were added at final concentrations of 1, 2, 4, 6, 8, 12, 16, 24, and 30 μM (3 repeated wells per concentration). Compounds were pre-dissolved in DMSO, sterilized, and diluted with medium before adding 20 μL/well. After co-incubation for designated durations, 10 μL CCK-8 solution was added per well followed by 1-4 h incubation (different cells have different incubation times). […] Inhibition rates were calculated as: (ODcontrol−ODtreatment)/ODcontrol×100%. Median inhibitory concentrations (IC50 values) were derived using Origin v8.0 software.

[2] = system: 5637 cells; assay: CCK-8 anti-proliferative assay, 5637; conditions: Table 16, comparative compounds 8-1 to 8-23, co-incubated 48 h, read-out: Anti-proliferative activity (IC50 ± standard deviation) 5637
Description: as §1, §2

[3] = system: A549 cells; assay: CCK-8 anti-proliferative assay, A549; conditions: Table 16, comparative compounds 8-1 to 8-23, co-incubated 48 h, read-out: Anti-proliferative activity (IC50 ± standard deviation) A549
Description: as §1, §2

[4] = system: T24 cells; assay: CCK-8 anti-proliferative assay, T24; conditions: Table 16, comparative compounds 8-1 to 8-23, co-incubated 48 h, read-out: Anti-proliferative activity (IC50 ± standard deviation) T24
Description: (§3) The obtained quinazolinyl-aryl urea derivatives were screened for compounds with optimal activity using the following method. All cell lines employed in this experiment were of human origin, including: bladder cancer cells: J82, UM-UC-3, T24, 5637, pancreatic cancer cells: BxPC-3, PANC-1, osteosarcoma cells: 143B, MG-63, cervical cancer cells: HeLa, breast cancer cells: MCF-7, NSCLC cells: A549, hepatoblastoma cells: Hep G2, and ovarian cancer cells: SK-OV-3, as well as normal cell lines: immortalized ureteral epithelial cells (SV-HUC-1), embryonic lung fibroblasts (WI-38).
(§4) Experimental Procedure for Anti-Proliferative Activity Evaluation: The CCK-8 assay was employed. Cells in logarithmic growth phase were harvested, adjusted to appropriate density, and uniformly seeded into 96-well plates using a multichannel pipette (180 μL cell suspension containing complete medium per well, 5,000 cells/well). Blank control wells (containing basal medium, CCK-8 solution, and DMSO only) were set. Cells were incubated at 37° C. under 5% CO2. After 70% confluency was reached, test compounds (target compounds/positive controls) were added at final concentrations of 1, 2, 4, 6, 8, 12, 16, 24, and 30 μM (3 repeated wells per concentration). Compounds were pre-dissolved in DMSO, sterilized, and diluted with medium before adding 20 μL/well. After co-incubation for designated durations, 10 μL CCK-8 solution was added per well followed by 1-4 h incubation (different cells have different incubation times). The reaction was terminated, and OD (optical density) values at 450 nm were measured using a microplate reader. Inhibition rates were calculated as: (ODcontrol−ODtreatment)/ODcontrol×100%. Median inhibitory concentrations (IC50 values) were derived using Origin v8.0 software.

[5] = system: Hep G2 cells; assay: CCK-8 anti-proliferative assay, Hep G2
Description: as §3, §4

[6] = system: BxPC-3 cells; assay: CCK-8 anti-proliferative assay, BxPC-3; conditions: Homo sapiens, BXPC-3; Table 7; co-incubated 48 h; read-out: Anti-proliferative activity (IC50 ± standard deviation) BxPC-3
Description: as §3, §4

[7] = system: PANC-1 cells; assay: CCK-8 anti-proliferative assay, PANC-1; conditions: Homo sapiens, PANC-1; Table 7; co-incubated 48 h; read-out: Anti-proliferative activity (IC50 ± standard deviation) PANC-1
Description: as §3, §4

[8] = Homo sapiens, HepG2, Table 16, comparative compounds 8-1 to 8-23, co-incubated 48 h, read-out: Anti-proliferative activity (IC50 ± standard deviation) Hep G2

Compound	IC50 ([1]; Homo sapiens, MCF7) [µM]	IC50 ([2]; Homo sapiens) [µM]	IC50 ([3]; Homo sapiens, A549) [µM]	IC50 ([4]; Homo sapiens, T-24) [µM]	IC50 [5, 8] [µM]	IC50 ([5]; Homo sapiens, HepG2, read-out: IC50 on Hep G2) [µM]	IC50 [1] [µM]	IC50 [2] [µM]	IC50 [3] [µM]	IC50 [4] [µM]	IC50 ([5]; Table 16, comparative compounds 8-1 to 8-23, co-incubated 48 h, read-out: Anti-proliferative activity (IC50 ± standard deviation) Hep G2) [µM]	IC50 [6] [µM]	IC50 [7] [µM]
COc1cc2ncnc(NCc3cccc(NC(=O)Nc4ccccc4)c3)c2cc1OCCCC(=O)N1CCC(N2CCOCC2)CC1 [Compound 8-1, reference compound]	18.3 ± 0.53	26.2 ± 0.98	> 30	18.8 ± 0.49	28.2 ± 0.49								
COc1cc2ncnc(NCc3cccc(NC(=O)Nc4ccccc4C)c3)c2cc1OCCCC(=O)N1CCC(N2CCOCC2)CC1 [Compound 8-2, reference compound]	16.5 ± 0.64	25.9 ± 1.32	> 30	> 30	> 30								
COc1cc2ncnc(NCc3cccc(NC(=O)Nc4ccc(C)cc4)c3)c2cc1OCCCC(=O)N1CCC(N2CCOCC2)CC1 [Compound 8-3, reference compound]	23.2 ± 0.35	> 30	24.1 ± 0.95	20.6 ± 0.68	> 30								
COc1cc2ncnc(NCc3cccc(NC(=O)Nc4ccc(C)cc4C)c3)c2cc1OCCCC(=O)N1CCC(N2CCOCC2)CC1 [Compound 8-4, reference compound]	18.5 ± 0.63	14 ± 0.66	22.2 ± 1.15	27.1 ± 0.33	> 30								
COc1cc2ncnc(NCc3cccc(NC(=O)Nc4cc(C)cc(C)c4)c3)c2cc1OCCCC(=O)N1CCC(N2CCOCC2)CC1 [Compound 8-5, reference compound]	21.3 ± 0.42	21.7 ± 0.51	21 ± 0.87	23.2 ± 0.54	> 30								
CCc1ccccc1NC(=O)Nc1cccc(CNc2ncnc3cc(OC)c(OCCCC(=O)N4CCC(N5CCOCC5)CC4)cc23)c1 [Compound 8-6, reference compound]	> 30	27.5 ± 0.94	> 30	19.4 ± 0.44	> 30								
CCc1cccc(CC)c1NC(=O)Nc1cccc(CNc2ncnc3cc(OC)c(OCCCC(=O)N4CCC(N5CCOCC5)CC4)cc23)c1 [Compound 8-7, reference compound]	> 30	13.9 ± 0.68	> 30	18.6 ± 0.53	24.2 ± 0.53								
COc1cc2ncnc(NCc3cccc(NC(=O)Nc4ccc(C(C)C)cc4)c3)c2cc1OCCCC(=O)N1CCC(N2CCOCC2)CC1 [Compound 8-8, reference compound]	10 ± 0.19	7.6 ± 0.18	18.3 ± 0.29	7.73 ± 0.23	17.7 ± 0.46								
COc1cc2ncnc(NCc3cccc(NC(=O)Nc4ccc(C(C)(C)C)cc4)c3)c2cc1OCCCC(=O)N1CCC(N2CCOCC2)CC1 [Compound 8-9, reference compound]	6.55 ± 0.13	6.25 ± 0.06	12.5 ± 0.37	4.54 ± 0.04	12.2 ± 0.17	12.2 ± 0.17							
COc1ccccc1NC(=O)Nc1cccc(CNc2ncnc3cc(OC)c(OCCCC(=O)N4CCC(N5CCOCC5)CC4)cc23)c1 [Compound 8-10, reference compound]	19.3 ± 0.56	16.9 ± 0.64	> 30	18.7 ± 0.38	28.8 ± 0.58								
COc1cc2ncnc(NCc3cccc(NC(=O)Nc4ccc(F)cc4)c3)c2cc1OCCCCCCN1CCN(CCN2CCOCC2)CC1 [Compound 8-11, reference compound]							18.3 ± 0.43	17.9 ± 0.33	> 30	23.3 ± 1.82	> 30		
COc1cc2ncnc(NCc3cccc(NC(=O)Nc4ccc(F)cc4)c3)c2cc1OCCCC(=O)N1CCC(N2CCOCC2)CC1 [Compound 8-13, reference compound]	21.5 ± 0.47	13.9 ± 0.43	> 30	19.5 ± 0.27	> 30								
COc1cc2ncnc(NCc3cccc(NC(=O)Nc4ccccc4Cl)c3)c2cc1OCCCC(=O)N1CCC(N2CCOCC2)CC1 [Compound 8-14, reference compound]	18.6 ± 0.35	28.9 ± 0.53	20.2 ± 0.92	23.1 ± 0.73	> 30								
COc1cc2ncnc(NCc3cccc(NC(=O)Nc4ccc(Cl)cc4)c3)c2cc1OCCCC(=O)N1CCC(N2CCOCC2)CC1 [Compound 8-15, reference compound]	16.8 ± 0.32	14 ± 0.72	13.8 ± 0.35	19.1 ± 0.53	> 30								
COc1cc2ncnc(NCc3cccc(NC(=O)Nc4c(Cl)cc(Cl)cc4Cl)c3)c2cc1OCCCC(=O)N1CCC(N2CCOCC2)CC1 [Compound 8-16, reference compound]	15.9 ± 0.62	> 30	> 50	> 30	> 30								
COc1cc2ncnc(NCc3cccc(NC(=O)Nc4ccc(C(F)(F)F)cc4)c3)c2cc1OCCCC(=O)N1CCC(N2CCOCC2)CC1 [Compound 8-18, reference compound]	13.2 ± 0.39	13.1 ± 0.24	18.8 ± 0.59	19.6 ± 0.45	> 30								
COc1cc2ncnc(NCc3cccc(NC(=O)Nc4ccc(F)c(C(F)(F)F)c4)c3)c2cc1OCCCC(=O)N1CCC(N2CCOCC2)CC1 [Compound 8-19, reference compound]	22.4 ± 0.82	17.9 ± 0.45	16.1 ± 0.71	26.2 ± 0.94	> 30								
C#Cc1cccc(Nc2ncnc3cc(OCCOC)c(OCCOC)cc23)c1 [Erlo, erlotinib hydrochloride, reference compound]												18.3 ± 1.46	27.4 ± 1.77
